Experimental data taken from patent EP3046573B1, “AMYLIN ANALOGUES” (Zealand Pharma A/S, priority 2013, dated 2015).
Numbered stars: 1 amine (or outer) side, 2 acyl side, 3 side chain; on linkers, the order of the positions; unused ones are H or OH. Bridge positions count the residues as written; N and C are the ends. Square brackets hold non-standard residues; d marks the D form. Peptide text beside a SMILES is read from it. * marks the point of attachment. C20 diacid = O=C(O)CCCCCCCCCCCCCCCCCCC(=O)*; γGlu = O=C(O)[C@H](CCC(=O)[*:2])N[*:1]; NMeI = CC[C@H](C)[C@H](NC)C(=O)O; Sar = CNCC(=O)O

What follows are compounds tested against T1, human calcitonin receptor (hCTR2) (Homo sapiens, UniProt P30988) (assay: hCTR2 assay: induction of cAMP (AlphaScreen cAMP Assay kit) in COS7 cells expressing hCTR2).
T1 construct: expressed in transfected cells
T1 sequence (P30988 25-474): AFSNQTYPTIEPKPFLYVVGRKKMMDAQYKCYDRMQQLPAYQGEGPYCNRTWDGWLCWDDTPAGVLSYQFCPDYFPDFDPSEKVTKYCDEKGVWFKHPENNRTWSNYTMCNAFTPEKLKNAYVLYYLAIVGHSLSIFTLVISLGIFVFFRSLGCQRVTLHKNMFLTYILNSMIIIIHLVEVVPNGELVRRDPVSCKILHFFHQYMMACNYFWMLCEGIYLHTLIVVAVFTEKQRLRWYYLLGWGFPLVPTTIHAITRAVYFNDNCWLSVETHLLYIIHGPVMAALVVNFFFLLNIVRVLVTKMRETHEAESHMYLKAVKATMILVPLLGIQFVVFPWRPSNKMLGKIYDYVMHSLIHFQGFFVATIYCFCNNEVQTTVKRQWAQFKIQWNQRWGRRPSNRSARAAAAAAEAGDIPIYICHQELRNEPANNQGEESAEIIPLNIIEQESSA
Format: cell-based
Source text: The cell line COS7, originating from African Green Monkey kidney fibroblast cells, was used for establishment of the stable cell lines described below. The COS7 cellular background was used due to it being RAMP naive, and as such it provides the best available system for testing of the monomeric hCTR and different heterodimeric amylin receptor subtypes functionally generated by introduction of the individual RAMPs.
A cell line expressing the human calcitonin receptor (hCTR2) was generated in the COS7 cellular background as stable clones. In brief, hCTR2 (GI: 4502547) was amplified by PCR using primers encoding terminal restriction sites for subcloning. The 5'-end primers additionally encoded a near Kozak consensus sequence to ensure efficient translation. The fidelity of the DNA encoding the receptor was confirmed by DNA sequencing. The PCR products encoding the receptor were subcloned into a mammalian expression vector containing a neomycin (G418) resistance marker. The mammalian expression vector encoding the receptor was transfected into COS7 cells by a standard liposome transfection method. 48 hours post-transfection, cells were seeded for limited dilution cloning and selected with 1 mg/ml G418 in the culture medium. After 3 weeks, surviving colonies of hCTR2-expressing cells were picked, propagated and tested in the amylin efficacy assay as described in Example 3 below. One hCTR2-expressing clone was chosen for compound profiling.
In vitro activity of test peptides at the hCTR2 and hAMYR3 receptors was assessed by measuring the induction of cAMP following stimulation of the receptor by pramlintide or peptides of the invention using the AlphaScreen® cAMP Assay kit from Perkin-Elmer.
Briefly, COS7 cells expressing hCTR2 (see Example 2, above) were seeded at 30-40,000 cells per well in 96-well microtiter plates coated with 0.01 % poly-L-lysine, and grown for 1 day in culture in 100 µl growth medium [DMEM, 10% FCS, Penicillin (100 IU/ml), Streptomycin (100 µg/ml)]. On the day of analysis, growth medium was removed and the cells were washed once with 200 µl Tyrode buffer [Tyrode's Salts (9.6 g/l), 10 mM HEPES, pH 7.4]. Cells were incubated in 100 µl Tyrode buffer containing increasing concentrations of test peptides, 100 µM IBMX and 0.1% casein for 15 min at 37° C. The reaction was stopped by carefully decanting off the compound/buffer medium and replacing it with lysis/detection buffer (80 µl 0.1 % w/v BSA, 5 mM HEPES, 0.3 % v/v Tween-20 in deionized water). After incubation at room temperature for 10 min., the cAMP content of the resulting cell lysate was estimated according to the AlphaScreen® cAMP Assay manufacturer's instructions. EC50 values and relative efficacy values (in %) compared to reference peptide (Pramlintide) were estimated by computer-aided curve fitting using the 4-parameter logistic (4PL) non-linear model.
The in vitro activity results (expressed as EC50 values) for peptides of the invention and for Pramlintide (reference peptide) are summarized in Table 2, below.

Row | Compound | EC50 [nM]
1 | CC[C@H](C)[C@@H](C(=O)N[C@@H](CC(C)C)C(=O)N[C@@H](CO)C(=O)N[C@@H](CO)C(=O)N[C@H](C(=O)N[C@@H](CC(N)=O)C(=O)N[C@H](C(=O)NCC(=O)N[C@@H](CO)C(=O)N[C@@H](CC(N)=O)C(=O)N[C@H](C(=O)N1CCC[C@H]1C(N)=O)[C@@H](C)O)C(C)C)[C@@H](C)O)N(C)C(=O)[C@H](C)NC(=O)CN(C)C(=O)[C@H](Cc1ccccc1)NC(=O)[C@H](CC(N)=O)NC(=O)[C@H](CC(N)=O)NC(=O)[C@H](CO)NC(=O)[C@H](CO)NC(=O)[C@H](Cc1c[nH]cn1)NC(=O)[C@H](Cc1c[nH]cn1)NC(=O)[C@H](CC(C)C)NC(=O)[C@H](Cc1ccccc1)NC(=O)[C@H](CCC(=O)O)NC(=O)[C@H](C)NC(=O)[C@@H](CC(C)C)NC(=O)[C@H](CCCNC(=N)N)NC(=O)[C@H](CCC(N)=O)NC(=O)[C@@H](NC(=O)[C@H](C)NC(=O)[C@@H]1CSSC[C@H](NC(=O)[C@H](CCCNC(=N)N)NC(=O)CC[C@H](NC(=O)CCCCCCCCCCCCCCCCCCC(=O)O)C(=O)O)C(=O)N[C@@H](CC(N)=O)C(=O)N[C@@H]([C@@H](C)O)C(=O)N[C@@H](C)C(=O)N[C@@H]([C@@H](C)O)C(=O)N1)[C@@H](C)O [Compound 6, [19CD]-isoGlu-RC()NTATC()ATQR-DLeu-AEFLHHSSNNF-Gly(Me)-A-Ile(Me)-LSSTNVGSNTP-NH2] ({C20 diacid-γGlu}-RCNTATCATQR[dL]AEFLHHSSNNF[Sar]A[NMeI]LSSTNVGSNTP-NH2; disulfide 2-7) | 7.8
2 | CC[C@H](C)[C@@H](C(=O)N[C@@H](CC(C)C)C(=O)N[C@@H](CO)C(=O)N[C@@H](CO)C(=O)N[C@H](C(=O)N[C@@H](CC(N)=O)C(=O)N[C@H](C(=O)NCC(=O)N[C@@H](CO)C(=O)N[C@@H](CC(N)=O)C(=O)N[C@H](C(=O)N1CCC[C@H]1C(N)=O)[C@@H](C)O)C(C)C)[C@@H](C)O)N(C)C(=O)[C@H](C)NC(=O)CN(C)C(=O)[C@H](Cc1ccccc1)NC(=O)[C@H](CC(N)=O)NC(=O)[C@H](CC(N)=O)NC(=O)[C@H](CO)NC(=O)[C@H](CO)NC(=O)[C@H](Cc1c[nH]cn1)NC(=O)[C@H](Cc1c[nH]cn1)NC(=O)[C@H](CC(C)C)NC(=O)[C@H](Cc1ccccc1)NC(=O)[C@H](CCC(=O)O)NC(=O)[C@@H](C)NC(=O)[C@H](CC(C)C)NC(=O)[C@H](CCCNC(=N)N)NC(=O)[C@H](CCC(N)=O)NC(=O)[C@@H](NC(=O)[C@H](C)NC(=O)[C@@H]1CSSC[C@H](NC(=O)[C@H](CCCNC(=N)N)NC(=O)CC[C@H](NC(=O)CCCCCCCCCCCCCCCCCCC(=O)O)C(=O)O)C(=O)N[C@@H]([C@@H](C)O)C(=O)N[C@@H](C)C(=O)N[C@@H]([C@@H](C)O)C(=O)N1)[C@@H](C)O [Compound 7, [19CD]-isoGlu-RC()TATC()ATQRL-DAla-EFLHHSSNNF-Gly(Me)-A-Ile(Me)-LSSTNVGSNTP-NH2] ({C20 diacid-γGlu}-RCTATCATQRL[dA]EFLHHSSNNF[Sar]A[NMeI]LSSTNVGSNTP-NH2; disulfide 2-6) | 1.9
3 | CC[C@H](C)[C@@H](C(=O)N[C@@H](CC(C)C)C(=O)N[C@@H](CO)C(=O)N[C@@H](CO)C(=O)N[C@H](C(=O)N[C@@H](CC(N)=O)C(=O)N[C@H](C(=O)NCC(=O)N[C@@H](CO)C(=O)N[C@@H](CC(N)=O)C(=O)N[C@H](C(=O)N1CCC[C@H]1C(N)=O)[C@@H](C)O)C(C)C)[C@@H](C)O)N(C)C(=O)[C@H](C)NC(=O)CN(C)C(=O)[C@H](Cc1ccccc1)NC(=O)[C@H](CC(N)=O)NC(=O)[C@H](CC(N)=O)NC(=O)[C@H](CO)NC(=O)[C@H](CO)NC(=O)[C@H](Cc1c[nH]cn1)NC(=O)[C@H](Cc1c[nH]cn1)NC(=O)[C@H](CC(C)C)NC(=O)[C@H](Cc1ccccc1)NC(=O)[C@@H](CCC(=O)O)NC(=O)[C@H](C)NC(=O)[C@H](CC(C)C)NC(=O)[C@H](CCCNC(=N)N)NC(=O)[C@H](CCC(N)=O)NC(=O)[C@@H](NC(=O)[C@H](C)NC(=O)[C@@H]1CSSC[C@H](NC(=O)[C@H](CCCNC(=N)N)NC(=O)CC[C@H](NC(=O)CCCCCCCCCCCCCCCCCCC(=O)O)C(=O)O)C(=O)N[C@@H](CC(N)=O)C(=O)N[C@@H]([C@@H](C)O)C(=O)N[C@@H](C)C(=O)N[C@@H]([C@@H](C)O)C(=O)N1)[C@@H](C)O [Compound 8, [19CD]-isoGlu-RC()NTATC()ATQRLA-DGlu-FLHHSSNNF-Gly(Me)-A-Ile(Me)-LSSTNVGSNTP-NH2] ({C20 diacid-γGlu}-RCNTATCATQRLA[dE]FLHHSSNNF[Sar]A[NMeI]LSSTNVGSNTP-NH2; disulfide 2-7) | 2.6
4 | CC[C@H](C)[C@@H](C(=O)N[C@@H](CC(C)C)C(=O)N[C@@H](CO)C(=O)N[C@@H](CO)C(=O)N[C@H](C(=O)N[C@@H](CC(N)=O)C(=O)N[C@H](C(=O)NCC(=O)N[C@@H](CO)C(=O)N[C@@H](CC(N)=O)C(=O)N[C@H](C(=O)N1CCC[C@H]1C(N)=O)[C@@H](C)O)C(C)C)[C@@H](C)O)N(C)C(=O)[C@H](C)NC(=O)CN(C)C(=O)[C@H](Cc1ccccc1)NC(=O)[C@H](CC(N)=O)NC(=O)[C@H](CC(N)=O)NC(=O)[C@H](CO)NC(=O)[C@H](CO)NC(=O)[C@H](Cc1c[nH]cn1)NC(=O)[C@H](Cc1c[nH]cn1)NC(=O)[C@H](CC(C)C)NC(=O)[C@@H](Cc1ccccc1)NC(=O)[C@H](CCC(=O)O)NC(=O)[C@H](C)NC(=O)[C@H](CC(C)C)NC(=O)[C@H](CCCNC(=N)N)NC(=O)[C@H](CCC(N)=O)NC(=O)[C@@H](NC(=O)[C@H](C)NC(=O)[C@@H]1CSSC[C@H](NC(=O)[C@H](CCCNC(=N)N)NC(=O)CC[C@H](NC(=O)CCCCCCCCCCCCCCCCCCC(=O)O)C(=O)O)C(=O)N[C@@H](CC(N)=O)C(=O)N[C@@H]([C@@H](C)O)C(=O)N[C@@H](C)C(=O)N[C@@H]([C@@H](C)O)C(=O)N1)[C@@H](C)O [Compound 9, [19CD]-isoGlu-RC()NTATC()ATQRLAE-DPhe-LHHSSNNF-Gly(Me)-A-Ile(Me)-LSSTNVGSNTP-NH2] ({C20 diacid-γGlu}-RCNTATCATQRLAE[dF]LHHSSNNF[Sar]A[NMeI]LSSTNVGSNTP-NH2; disulfide 2-7) | 1.1
5 | CC[C@H](C)[C@@H](C(=O)N[C@@H](CC(C)C)C(=O)N[C@@H](CO)C(=O)N[C@@H](CO)C(=O)N[C@H](C(=O)N[C@@H](CC(N)=O)C(=O)N[C@H](C(=O)NCC(=O)N[C@@H](CO)C(=O)N[C@@H](CC(N)=O)C(=O)N[C@H](C(=O)N1CCC[C@H]1C(N)=O)[C@@H](C)O)C(C)C)[C@@H](C)O)N(C)C(=O)[C@H](C)NC(=O)CN(C)C(=O)[C@H](Cc1ccccc1)NC(=O)[C@H](CC(N)=O)NC(=O)[C@H](CC(N)=O)NC(=O)[C@H](CO)NC(=O)[C@H](CO)NC(=O)[C@H](Cc1c[nH]cn1)NC(=O)[C@@H](Cc1c[nH]cn1)NC(=O)[C@H](CC(C)C)NC(=O)[C@H](Cc1ccccc1)NC(=O)[C@H](CCC(=O)O)NC(=O)[C@H](C)NC(=O)[C@H](CC(C)C)NC(=O)[C@H](CCCNC(=N)N)NC(=O)[C@H](CCC(N)=O)NC(=O)[C@@H](NC(=O)[C@H](C)NC(=O)[C@@H]1CSSC[C@H](NC(=O)[C@H](CCCNC(=N)N)NC(=O)CC[C@H](NC(=O)CCCCCCCCCCCCCCCCCCC(=O)O)C(=O)O)C(=O)N[C@@H](CC(N)=O)C(=O)N[C@@H]([C@@H](C)O)C(=O)N[C@@H](C)C(=O)N[C@@H]([C@@H](C)O)C(=O)N1)[C@@H](C)O [Compound 11, [19CD]-isoGlu-RC()NTATC()ATQRLAEFL-DHis-HSSNNF-Gly(Me)-A-Ile(Me)-LSSTNVGSNTP-NH2] ({C20 diacid-γGlu}-RCNTATCATQRLAEFL[dH]HSSNNF[Sar]A[NMeI]LSSTNVGSNTP-NH2; disulfide 2-7) | 2.3
